From patent publication US6849394B2, “Compositions comprising reproductive cell media and methods for using such compositions” (Minitube of America, priority 2002, dated 2005)

Tested on: boar sperm cells
Assay: Motility of sperm in boar semen stored at 17° C. in sperm cell medium (Sperm Vison)
Type: cell-based
Description: Compositions comprising sperm cell media were prepared prior to collection by reconstituting Androhep Plus™ and the individual components indicated in the experiments below with microfiltered, deionized (Type I) water. Androhep Plus™ was prepared according to the manufacturer's instructions, except that additional components were added in an amount sufficient to give the concentrations indicated below. Each composition was transferred in 75-ml aliquots to 100-ml plastic bottles commercially available from Minitube of America (Verona, Wis.). Semen was collected (modified full ejaculate) from randomly selected, sexually mature boars (n=3) using the gloved hand technique. Following each collection, each ejaculate was evaluated for sperm cell concentration with an SDM5 photometer with a 546 nm filter and the percentage of motile cells was assessed with Sperm Vison™ using a plain glass slide and a 6 μl drop of semen. Aliquots of semen containing 1×10^9 motile spermatozoa from each of the three boars was transferred into each 75-ml aliquot of composition comprising sperm cell medium at the same temperature (36° C.±1° C.) to give a final concentration of 4×10^7 live sperm cells/ml. Following dispersion of the sperm cells in the composition, each sample was tested for percent motility. Samples were maintained in a semen storage unit at 17° C. The samples were gently mixed periodically during storage. […] Each aliquot was pre-warmed for 30 minutes in a dry block heater at 37° C. prior to motility testing. Motility testing was which was performed using the Sperm Vison™ module in the Prism Program and a plain glass slide pre-warmed to 37° C.

With O=C(CO)[C@@H](O)[C@H](O)[C@H](O)CO [fructose] the Mean % motility (Table 7, Androhep Plus + 20 ng/L TGFβ-1, 0.8 ng/L TGFβ-2, 80 ng/L IGF-1, fructose 3.75 g/L, day 1) was 94.9%, the Mean % motility (Table 7, Androhep Plus + 20 ng/L TGFβ-1, 0.8 ng/L TGFβ-2, 80 ng/L IGF-1, fructose 3.75 g/L, day 5) was 88.7% and the Mean % motility (Table 7, Androhep Plus + 20 ng/L TGFβ-1, 0.8 ng/L TGFβ-2, 80 ng/L IGF-1, fructose 3.75 g/L, day 10) was 88.7%. For the same molecule, the Mean % motility (Table 7, Androhep Plus + 20 ng/L TGFβ-1, 0.8 ng/L TGFβ-2, 80 ng/L IGF-1, fructose 3.75 g/L, day 20) was 89.8%, the Mean % motility (Table 7, Androhep Plus + 20 ng/L TGFβ-1, 0.8 ng/L TGFβ-2, 80 ng/L IGF-1, fructose 7.5 g/L, day 1) was 96.9% and the Mean % motility (Table 7, Androhep Plus + 20 ng/L TGFβ-1, 0.8 ng/L TGFβ-2, 80 ng/L IGF-1, fructose 7.5 g/L, day 5) was 91.0%. The Mean % motility (Table 7, Androhep Plus + 20 ng/L TGFβ-1, 0.8 ng/L TGFβ-2, 80 ng/L IGF-1, fructose 7.5 g/L, day 10) was 88.3%, the Mean % motility (Table 7, Androhep Plus + 20 ng/L TGFβ-1, 0.8 ng/L TGFβ-2, 80 ng/L IGF-1, fructose 7.5 g/L, day 20) was 89.8% and the Mean % motility (Table 7, Androhep Plus + 20 ng/L TGFβ-1, 0.8 ng/L TGFβ-2, 80 ng/L IGF-1, fructose 15 g/L, day 1) was 94.3%. It also gave a Mean % motility (Table 7, Androhep Plus + 20 ng/L TGFβ-1, 0.8 ng/L TGFβ-2, 80 ng/L IGF-1, fructose 15 g/L, day 5) of 85.8%, a Mean % motility (Table 7, Androhep Plus + 20 ng/L TGFβ-1, 0.8 ng/L TGFβ-2, 80 ng/L IGF-1, fructose 15 g/L, day 10) of 89.3% and a Mean % motility (Table 7, Androhep Plus + 20 ng/L TGFβ-1, 0.8 ng/L TGFβ-2, 80 ng/L IGF-1, fructose 15 g/L, day 20) of 89.3%. It also gave a Mean % motility (Table 7, Androhep Plus + 20 ng/L TGFβ-1, 0.8 ng/L TGFβ-2, 80 ng/L IGF-1, fructose 30 g/L, day 1) of 94.7%, a Mean % motility (Table 7, Androhep Plus + 20 ng/L TGFβ-1, 0.8 ng/L TGFβ-2, 80 ng/L IGF-1, fructose 30 g/L, day 5) of 54.8% and a Mean % motility (Table 7, Androhep Plus + 20 ng/L TGFβ-1, 0.8 ng/L TGFβ-2, 80 ng/L IGF-1, fructose 30 g/L, day 10) of 37.4%. For the same molecule, the Mean % motility (Table 7, Androhep Plus + 20 ng/L TGFβ-1, 0.8 ng/L TGFβ-2, 80 ng/L IGF-1, fructose 30 g/L, day 20) was 2.2%.

With O[C@H]1[C@H](O)[C@@H](O)[C@H](O)[C@@H](O)[C@H]1O [inositol] the Mean % motility (Table 8, Androhep Plus, inositol 0.25 g/L, day 1) was 85.7%, the Mean % motility (Table 8, Androhep Plus, inositol 0.25 g/L, day 5) was 88.0% and the Mean % motility (Table 8, Androhep Plus, inositol 0.25 g/L, day 7) was 93.3%. For the same molecule, the Mean % motility (Table 8, Androhep Plus, inositol 0.25 g/L, day 10) was 78.3%, the Mean % motility (Table 8, Androhep Plus, inositol 0.25 g/L, day 20) was 48.0% and the Mean % motility (Table 8, Androhep Plus, inositol 0.5 g/L, day 1) was 94.7%. It also gave a Mean % motility (Table 8, Androhep Plus, inositol 0.5 g/L, day 5) of 93.3%, a Mean % motility (Table 8, Androhep Plus, inositol 0.5 g/L, day 7) of 92.7% and a Mean % motility (Table 8, Androhep Plus, inositol 0.5 g/L, day 10) of 84.3%. The Mean % motility (Table 8, Androhep Plus, inositol 0.5 g/L, day 20) was 70.3%.

Molecule O=S(=O)([O-])[O-].[Zn+2] [zinc sulfate] has a Mean % motility (Table 6, base Androhep Plus, zinc sulfate 0.05 g/L, day 1) of 83.3%, a Mean % motility (Table 6, base Androhep Plus, zinc sulfate 0.05 g/L, day 5) of 83.7% and a Mean % motility (Table 6, base Androhep Plus, zinc sulfate 0.05 g/L, day 10) of 87.7%. It also gave a Mean % motility (Table 6, base Androhep Plus, zinc sulfate 0.05 g/L, day 20) of 84.0%, a Mean % motility (Table 6, base Androhep Plus, zinc sulfate 0.1 g/L, day 1) of 92.0% and a Mean % motility (Table 6, base Androhep Plus, zinc sulfate 0.1 g/L, day 5) of 93.3%. It also gave a Mean % motility (Table 6, base Androhep Plus, zinc sulfate 0.1 g/L, day 10) of 89.7%, a Mean % motility (Table 6, base Androhep Plus, zinc sulfate 0.1 g/L, day 20) of 78.3% and a Mean % motility (Table 6, base Androhep Plus, zinc sulfate 0.2 g/L, day 1) of 94.7%. For the same molecule, the Mean % motility (Table 6, base Androhep Plus, zinc sulfate 0.2 g/L, day 5) was 93.3%, the Mean % motility (Table 6, base Androhep Plus, zinc sulfate 0.2 g/L, day 10) was 87.7% and the Mean % motility (Table 6, base Androhep Plus, zinc sulfate 0.2 g/L, day 20) was 87.0%. For the same molecule, the Mean % motility (Table 6, base Androhep Plus, zinc sulfate 0.5 g/L, day 1) was 86.0%, the Mean % motility (Table 6, base Androhep Plus, zinc sulfate 0.5 g/L, day 5) was 85.7% and the Mean % motility (Table 6, base Androhep Plus, zinc sulfate 0.5 g/L, day 10) was 89.3%. For the same molecule, the Mean % motility (Table 6, base Androhep Plus, zinc sulfate 0.5 g/L, day 20) was 82.5%, the Mean % motility (Table 6, base Androhep Plus, zinc sulfate 1.0 g/L, day 1) was 94.0% and the Mean % motility (Table 6, base Androhep Plus, zinc sulfate 1.0 g/L, day 5) was 73.0%. It also gave a Mean % motility (Table 6, base Androhep Plus, zinc sulfate 1.0 g/L, day 10) of 87.3% and a Mean % motility (Table 6, base Androhep Plus, zinc sulfate 1.0 g/L, day 20) of 78.3%.
